{"source": "paper doi:10.1101/2023.10.21.563410v1", "about": "(biorxiv, 2023)", "key": {"OATP1B3 [1]": {"target": "T1, OATP1B3 (Homo sapiens, UniProt Q9NPD5)", "T1 sequence (Q9NPD5 1-702)": "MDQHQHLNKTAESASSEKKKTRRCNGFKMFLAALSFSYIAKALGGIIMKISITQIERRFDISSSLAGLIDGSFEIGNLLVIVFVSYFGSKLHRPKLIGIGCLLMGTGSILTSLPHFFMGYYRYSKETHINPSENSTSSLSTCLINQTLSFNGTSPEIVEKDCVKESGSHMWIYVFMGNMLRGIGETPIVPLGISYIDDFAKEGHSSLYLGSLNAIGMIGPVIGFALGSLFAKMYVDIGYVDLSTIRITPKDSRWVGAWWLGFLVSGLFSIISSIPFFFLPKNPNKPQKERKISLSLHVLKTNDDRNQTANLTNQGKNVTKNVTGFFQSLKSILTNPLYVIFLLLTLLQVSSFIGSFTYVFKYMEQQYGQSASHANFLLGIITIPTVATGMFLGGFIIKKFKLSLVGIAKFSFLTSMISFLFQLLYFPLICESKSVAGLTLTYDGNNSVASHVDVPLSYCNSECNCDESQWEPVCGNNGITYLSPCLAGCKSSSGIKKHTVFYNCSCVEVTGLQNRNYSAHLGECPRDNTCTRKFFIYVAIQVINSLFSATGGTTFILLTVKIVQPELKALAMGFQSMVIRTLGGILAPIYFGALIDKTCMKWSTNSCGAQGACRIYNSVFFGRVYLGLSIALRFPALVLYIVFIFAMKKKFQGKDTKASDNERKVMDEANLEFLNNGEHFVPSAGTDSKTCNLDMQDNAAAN", "test": "fluorimetric uptake of fluorescein-methotrexate", "assay_type": "cell-based", "details": "racemic compound"}, "OATP1B1 [2]": {"target": "T2, OATP1B1 (Homo sapiens, UniProt Q9Y6L6)", "T2 sequence (Q9Y6L6 1-691)": "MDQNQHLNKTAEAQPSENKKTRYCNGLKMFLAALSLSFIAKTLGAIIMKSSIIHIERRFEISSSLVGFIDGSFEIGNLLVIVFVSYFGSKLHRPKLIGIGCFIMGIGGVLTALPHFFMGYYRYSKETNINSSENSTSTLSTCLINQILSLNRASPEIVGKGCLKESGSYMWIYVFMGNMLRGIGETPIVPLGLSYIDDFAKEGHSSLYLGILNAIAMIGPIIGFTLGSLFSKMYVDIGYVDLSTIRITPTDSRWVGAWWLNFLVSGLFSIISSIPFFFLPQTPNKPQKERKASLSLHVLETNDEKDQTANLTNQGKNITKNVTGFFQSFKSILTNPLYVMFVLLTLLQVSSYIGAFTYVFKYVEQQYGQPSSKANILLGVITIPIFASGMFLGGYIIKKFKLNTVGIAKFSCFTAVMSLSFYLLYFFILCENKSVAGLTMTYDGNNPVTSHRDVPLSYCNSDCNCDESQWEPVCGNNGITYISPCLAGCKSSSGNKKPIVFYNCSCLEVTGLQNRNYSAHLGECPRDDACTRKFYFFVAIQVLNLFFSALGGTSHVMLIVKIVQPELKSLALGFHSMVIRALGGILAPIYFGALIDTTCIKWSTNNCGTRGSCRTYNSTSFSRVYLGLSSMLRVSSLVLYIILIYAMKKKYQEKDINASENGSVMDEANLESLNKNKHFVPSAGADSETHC", "test": "fluorimetric uptake of fluorescein-methotrexate", "assay_type": "cell-based", "details": "racemic compound"}, "BSEP": {"target": "BSEP (Homo sapiens, UniProt O95342)", "sequence (O95342 whole entry)": "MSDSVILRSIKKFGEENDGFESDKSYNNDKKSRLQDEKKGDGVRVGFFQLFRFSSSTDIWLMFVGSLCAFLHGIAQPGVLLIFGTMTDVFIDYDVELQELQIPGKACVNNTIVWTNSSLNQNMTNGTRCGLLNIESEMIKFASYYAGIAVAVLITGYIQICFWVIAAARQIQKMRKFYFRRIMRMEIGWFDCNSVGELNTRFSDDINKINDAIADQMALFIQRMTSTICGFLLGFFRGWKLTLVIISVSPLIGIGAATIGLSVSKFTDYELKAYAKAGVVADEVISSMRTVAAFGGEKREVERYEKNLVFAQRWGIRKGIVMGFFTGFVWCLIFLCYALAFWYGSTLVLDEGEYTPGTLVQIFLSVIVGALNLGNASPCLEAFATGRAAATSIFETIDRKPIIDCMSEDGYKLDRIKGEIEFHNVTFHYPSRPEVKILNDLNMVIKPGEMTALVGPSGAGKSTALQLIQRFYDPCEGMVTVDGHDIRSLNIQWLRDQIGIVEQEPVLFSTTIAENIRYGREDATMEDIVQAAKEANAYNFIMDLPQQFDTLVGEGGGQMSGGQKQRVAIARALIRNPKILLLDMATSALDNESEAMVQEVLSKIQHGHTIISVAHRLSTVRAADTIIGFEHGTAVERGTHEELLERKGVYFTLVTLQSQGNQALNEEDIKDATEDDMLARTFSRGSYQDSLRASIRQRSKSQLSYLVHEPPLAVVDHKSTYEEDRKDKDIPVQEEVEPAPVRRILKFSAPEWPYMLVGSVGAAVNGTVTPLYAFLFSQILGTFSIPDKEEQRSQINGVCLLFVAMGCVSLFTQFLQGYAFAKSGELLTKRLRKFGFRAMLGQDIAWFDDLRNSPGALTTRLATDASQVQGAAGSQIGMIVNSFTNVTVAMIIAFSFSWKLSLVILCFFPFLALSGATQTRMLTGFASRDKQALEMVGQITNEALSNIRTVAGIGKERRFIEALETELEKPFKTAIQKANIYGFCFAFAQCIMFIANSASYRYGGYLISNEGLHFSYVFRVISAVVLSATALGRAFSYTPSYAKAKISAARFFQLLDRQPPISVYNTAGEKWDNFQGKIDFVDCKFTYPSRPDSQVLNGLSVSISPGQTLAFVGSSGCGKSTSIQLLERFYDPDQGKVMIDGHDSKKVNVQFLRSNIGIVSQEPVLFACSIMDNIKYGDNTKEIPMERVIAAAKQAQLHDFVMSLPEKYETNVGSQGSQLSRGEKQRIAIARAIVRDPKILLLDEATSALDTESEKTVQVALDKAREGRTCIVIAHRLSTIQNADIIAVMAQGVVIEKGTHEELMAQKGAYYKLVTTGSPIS", "test": "uptake of 3H-taurocholic acid in membrane vesicles, scintillation counting", "assay_type": "biochemical", "details": "read-out: % of control activity at 10 μM"}, "MRP2": {"target": "MRP2 (Homo sapiens, UniProt Q92887)", "sequence (Q92887 whole entry)": "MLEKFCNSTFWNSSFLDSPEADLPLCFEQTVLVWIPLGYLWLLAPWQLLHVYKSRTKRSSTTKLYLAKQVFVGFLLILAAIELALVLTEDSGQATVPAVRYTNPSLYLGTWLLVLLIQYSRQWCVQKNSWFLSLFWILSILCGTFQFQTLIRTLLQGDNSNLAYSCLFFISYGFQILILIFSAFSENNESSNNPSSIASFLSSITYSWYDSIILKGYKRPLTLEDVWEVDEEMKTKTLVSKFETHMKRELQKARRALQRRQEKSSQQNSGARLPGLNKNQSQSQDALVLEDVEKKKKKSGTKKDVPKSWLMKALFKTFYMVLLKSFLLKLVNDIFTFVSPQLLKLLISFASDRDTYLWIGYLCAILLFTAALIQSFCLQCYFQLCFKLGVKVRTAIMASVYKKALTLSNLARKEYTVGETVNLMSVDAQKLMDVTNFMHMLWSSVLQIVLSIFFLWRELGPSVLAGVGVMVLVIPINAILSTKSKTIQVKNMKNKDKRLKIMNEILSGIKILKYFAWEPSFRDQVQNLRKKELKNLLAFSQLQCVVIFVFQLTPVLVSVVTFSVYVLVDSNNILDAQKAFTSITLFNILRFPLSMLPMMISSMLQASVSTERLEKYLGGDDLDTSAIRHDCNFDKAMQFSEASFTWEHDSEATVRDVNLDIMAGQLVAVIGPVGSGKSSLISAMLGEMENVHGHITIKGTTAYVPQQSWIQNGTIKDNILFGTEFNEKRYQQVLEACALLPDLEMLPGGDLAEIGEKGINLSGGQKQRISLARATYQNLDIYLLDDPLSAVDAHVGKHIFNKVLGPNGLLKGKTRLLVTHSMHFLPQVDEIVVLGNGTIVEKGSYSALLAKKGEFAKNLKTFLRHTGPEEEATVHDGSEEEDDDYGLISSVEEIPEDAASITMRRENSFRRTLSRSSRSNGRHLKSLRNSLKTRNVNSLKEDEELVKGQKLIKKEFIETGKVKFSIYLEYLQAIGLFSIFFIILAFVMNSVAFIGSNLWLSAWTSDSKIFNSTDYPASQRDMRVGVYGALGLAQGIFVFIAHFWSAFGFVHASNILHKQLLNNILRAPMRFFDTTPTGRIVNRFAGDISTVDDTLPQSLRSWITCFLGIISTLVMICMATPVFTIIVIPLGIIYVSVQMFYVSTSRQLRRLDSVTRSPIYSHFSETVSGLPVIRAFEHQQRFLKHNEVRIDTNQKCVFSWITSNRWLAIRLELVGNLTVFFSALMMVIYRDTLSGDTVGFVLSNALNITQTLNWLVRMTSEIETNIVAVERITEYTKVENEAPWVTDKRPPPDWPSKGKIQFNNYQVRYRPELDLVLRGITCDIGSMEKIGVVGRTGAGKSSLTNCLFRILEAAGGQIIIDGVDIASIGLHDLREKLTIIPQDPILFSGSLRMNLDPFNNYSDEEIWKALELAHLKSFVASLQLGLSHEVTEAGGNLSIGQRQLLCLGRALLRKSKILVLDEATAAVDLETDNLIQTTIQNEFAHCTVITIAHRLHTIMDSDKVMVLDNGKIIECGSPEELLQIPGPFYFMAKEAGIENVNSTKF", "test": "fluorimetric uptake of […]", "assay_type": "cell-based"}, "hPXR": {"target": "T3, hPXR (Homo sapiens, UniProt O75469)", "T3 sequence (O75469 1-434)": "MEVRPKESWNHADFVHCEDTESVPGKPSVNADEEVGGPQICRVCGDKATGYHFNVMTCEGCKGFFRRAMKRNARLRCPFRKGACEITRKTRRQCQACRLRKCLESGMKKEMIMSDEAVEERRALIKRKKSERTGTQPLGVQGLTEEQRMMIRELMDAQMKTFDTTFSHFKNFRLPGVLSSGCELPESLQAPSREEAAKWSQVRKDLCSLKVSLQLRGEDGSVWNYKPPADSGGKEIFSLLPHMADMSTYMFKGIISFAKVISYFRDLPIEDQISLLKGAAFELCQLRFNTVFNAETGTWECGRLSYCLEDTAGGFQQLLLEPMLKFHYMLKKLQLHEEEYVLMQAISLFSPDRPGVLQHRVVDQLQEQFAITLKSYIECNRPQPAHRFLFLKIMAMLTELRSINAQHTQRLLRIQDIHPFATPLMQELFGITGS", "test": "luciferase reporter gene assay", "assay_type": "cell-based"}, "OATP1B1 [3]": {"target": "T2, OATP1B1", "test": "fluorimetric uptake of fluorescein-methotrexate", "assay_type": "cell-based"}, "OATP1B3 [4]": {"target": "T1, OATP1B3", "test": "fluorimetric uptake of fluorescein-methotrexate", "assay_type": "cell-based"}}, "note": "pEC50, pIC50: −log10 of the molar value."}
{"smiles": "C#CCC(O)(c1ccncc1)c1cc2ccccc2n1S(=O)(=O)c1ccccc1", "note": "(racemic) [FKK6, 1-(1-(phenylsulfonyl)-1H-indol-2-yl)-(1-pyridin-4-yl)-but-3-yn-1-ol]", "values": [{"measurement": "% of control activity at 10 μM", "setting": "OATP1B3 [1]", "value": 36, "unit": "%"}, {"measurement": "% of control activity at 10 μM", "setting": "OATP1B1 [2]", "value": 34, "unit": "%"}, {"measurement": "remaining activity at 10 µM", "setting": "BSEP", "value": 44, "unit": "%"}]}
{"smiles": "CN(C)C(=O)CCSC(SCCC(=O)O)c1cccc(/C=C/c2ccc3ccc(Cl)cc3n2)c1", "note": "(centres unmarked) [MK571]", "values": [{"measurement": "pIC50", "setting": "MRP2", "value": 4.66}]}
{"smiles": "C#CCC(O)(c1cc[n+]([O-])cc1)c1cc2ccccc2n1S(=O)(=O)c1ccccc1", "note": "(centres unmarked) [compound 6, 4-(1-hydroxy-1-(1-(phenylsulfonyl)-1H-indol-2-yl)but-3-yn-1-yl)pyridine 1-oxide]", "values": [{"measurement": "pEC50", "setting": "hPXR", "value": 5.11}]}
{"smiles": "C#CCC(O)(c1ccncc1)c1cc2ccccc2n1S(=O)(=O)c1ccc(O)cc1", "note": "(centres unmarked) [compound 9, 4-((2-(1-hydroxy-1-(pyridin-4-yl)but-3-yn-1-yl)-1H-indol-1-yl)sulfonyl)phenol]", "values": [{"measurement": "pEC50", "setting": "hPXR", "value": 5.29}]}
{"smiles": "CO[C@H]1/C=C/O[C@@]2(C)Oc3c(C)c(O)c4c(O)c(c(/C=N/N5CCN(C)CC5)c(O)c4c3C2=O)NC(=O)/C(C)=C\\C=C\\[C@H](C)[C@H](O)[C@@H](C)[C@@H](O)[C@@H](C)[C@H](OC(C)=O)[C@@H]1C", "note": "[rifampicin]", "values": [{"measurement": "pIC50", "setting": "OATP1B1 [3]", "value": 5.47}, {"measurement": "pIC50", "setting": "OATP1B3 [4]", "value": 5.41}]}
